Data reported in ChEMBL document CHEMBL3112540, “Synthesis of halogenated 4-quinolones and evaluation of their antiplasmodial activity” (Bioorg Med Chem Lett, 2014).
Active and inactive are the calls of the source. No cut-off for these calls is given here.

Columns and labels:
Candida albicans = test: Antimicrobial activity against Candida albicans; assay type: functional, organism-based
Aspergillus flavus = test: Antimicrobial activity against Aspergillus flavus; assay type: functional, organism-based
CHO = test: Cytotoxicity against CHO cells by MTT assay; assay type: cell-based; conditions: Cricetulus griseus
Escherichia coli = test: Antimicrobial activity against Escherichia coli; assay type: functional, organism-based
Plasmodium falciparum [1] = test: Antiplasmodial activity chloroquine-resistant Plasmodium falciparum Dd2 by lactate dehydrogenase assay; assay type: functional, organism-based
in vitro = conditions: hamster
Description: Selectivity index, ratio of IC50 for CHO cells to IC50 for chloroquine-sensitive Plasmodium falciparum NF54

Plasmodium falciparum [2] = test: Antiplasmodial activity chloroquine-sensitive Plasmodium falciparum NF54 by lactate dehydrogenase assay; assay type: functional, organism-based
Staphylococcus aureus = test: Antimicrobial activity against Staphylococcus aureus; assay type: functional, organism-based

Row | SMILES | Activity (Candida albicans) | Activity (Aspergillus flavus) | IC50 (CHO) | Activity (Escherichia coli) | IC50 (Plasmodium falciparum [1]) | selectivity ratio (in vitro) | IC50 (Plasmodium falciparum [2]) | Activity (Staphylococcus aureus)
1 | CC(Br)(CBr)Cn1cc(Br)c(=O)c2ccc(Cl)cc21 (stereo unspecified) | inactive | inactive | 31.8 µM | inactive | 4.02 µM | 10 | 3.18 µM | inactive
2 | CC[C@H]1CN2CCc3cc(OC)c(OC)cc3[C@@H]2C[C@@H]1C[C@H]1NCCc2cc(OC)c(OC)cc21 [EMETINE] |  |  | 0.092 µM |  |  |  |  | 
3 | C[C@H]1[C@H](OC(=O)CCC(=O)O)O[C@@H]2O[C@@]3(C)CC[C@H]4[C@H](C)CC[C@@H]1[C@@]24OO3 [ARTESUNATE] |  |  |  |  | 0.046 µM |  | 0.005 µM | 
4 | CC(Br)(CBr)Cn1cc(Br)c(=O)c2ccccc21 (stereo unspecified) | inactive | inactive |  | inactive |  |  | 35.2 µM | inactive
